Data: ChEMBL document CHEMBL1201862, “PubChem BioAssay data set” (2004)
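Briefly, cells in 96-well plates were exposed to five compound concentrations for 48 h, and endpoints were estimated by linear interpolation. GI50: concentration for 50% inhibition of growth.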 Calls of active or inactive are those of the source. No stated cut-off is given here; in the data, active = GI50 up to about 1.1 µM and inactive = higher.

Legend:
Assay in all cases: NCI-60 cell line screen, 48 h
MDA-N = tested on: MDA-N
T47D = tested on: T47D
MDA-MB-231 = tested on: MDA-MB-231
LOX IMVI = tested on: LOX IMVI
NCI/ADR-RES = tested on: NCI/ADR-RES
EKVX = tested on: EKVX
MCF7 = tested on: MCF7
BT-549 = tested on: BT-549
PC-3 = tested on: PC-3
Hs-578T = tested on: Hs-578T
RPMI-8226 = tested on: RPMI-8226
NCI-H23 = tested on: NCI-H23
MDA-MB-435 = tested on: MDA-MB-435
HOP-92 = tested on: HOP-92
OVCAR-3 = tested on: OVCAR-3
OVCAR-4 = tested on: OVCAR-4
LXFL 529 = tested on: LXFL 529
DMS-273 = tested on: DMS-273
KM-20L2 = tested on: KM-20L2
XF498 = tested on: XF498

Measured: GI50

Nc1nnc2ccc(Cl)cc2[n+]1[O-]
inactive: MDA-N 37.6 µM | T47D 44.9 µM | MDA-MB-231 37.9 µM | LOX IMVI 57.5 µM | NCI/ADR-RES 40.1 µM | EKVX 47.6 µM | MCF7 70.1 µM | BT-549 > 100 µM | PC-3 > 100 µM | Hs-578T 41.7 µM | RPMI-8226 > 100 µM | NCI-H23 30.1 µM | MDA-MB-435 57 µM

O=c1c(-c2ccccc2)c(SCCN2CCCCCC2)n(-c2ccccc2)c(=S)n1-c1ccccc1
inactive: LOX IMVI 50.7 µM | NCI/ADR-RES 68.2 µM | EKVX 17.7 µM | HOP-92 15.2 µM | MCF7 24.9 µM | BT-549 > 100 µM | OVCAR-3 32.7 µM | OVCAR-4 15.5 µM | Hs-578T 39.8 µM | RPMI-8226 20.7 µM | NCI-H23 68.9 µM | MDA-MB-435 33 µM

Cc1cccc(C(O)c2cccnc2)c1O (stereo not given)
inactive: MDA-N > 100 µM | T47D > 100 µM | MDA-MB-231 > 100 µM | LOX IMVI > 100 µM | NCI/ADR-RES > 100 µM | EKVX > 100 µM | MCF7 > 100 µM | BT-549 > 100 µM | OVCAR-3 > 100 µM | PC-3 > 100 µM | Hs-578T > 100 µM | RPMI-8226 > 100 µM | NCI-H23 > 100 µM | MDA-MB-435 > 100 µM

CC1=CC[C@H](C)C(C)(C)C1/C=C/C(C)=C/CC[C@@]1(CO)[C@H](CCCO)/C(=C(/C)C=O)CC[C@]1(C)O (stereo not given in full)
inactive: LXFL 529 7.62 µM | EKVX 2.2 µM | DMS-273 2.2 µM | KM-20L2 1.82 µM | XF498 7.41 µM | NCI-H23 10.2 µM
active: LOX IMVI 0.824 µM | HOP-92 < 0.01 µM

CCOC(=O)C(OP(=O)(OCC)OCC)C(F)(F)F (stereo not given)
inactive: MDA-N > 100 µM | T47D > 100 µM | MDA-MB-231 > 100 µM | LOX IMVI > 100 µM | EKVX > 100 µM | MCF7 > 100 µM | BT-549 > 100 µM | OVCAR-3 > 100 µM | Hs-578T > 100 µM | RPMI-8226 > 100 µM | NCI-H23 > 100 µM | MDA-MB-435 > 100 µM

N#Cc1ccccc1NC(=O)C(=O)C(C(=O)c1ccccc1F)C1OC(=O)c2ccccc21 (stereo not given)
inactive: LXFL 529 31 µM | LOX IMVI 21.9 µM | EKVX 45.5 µM | HOP-92 > 100 µM | DMS-273 30.8 µM | KM-20L2 76.7 µM | OVCAR-4 65 µM | XF498 84.7 µM | RPMI-8226 25 µM | NCI-H23 40.4 µM

CCOC(=O)C(C(=O)OCC)c1cc(-c2cc3ccccc3o2)oc(=O)c1C#N
inactive: LXFL 529 20.4 µM | LOX IMVI 17.9 µM | EKVX 39.7 µM | HOP-92 3.41 µM | DMS-273 25.9 µM | KM-20L2 19.3 µM | OVCAR-4 26.5 µM | XF498 19 µM | RPMI-8226 35.6 µM | NCI-H23 16 µM

Brc1ccccc1-c1ncc(-c2ccccc2)o1
inactive: MDA-N 31 µM | T47D 9.29 µM | MDA-MB-231 38 µM | LOX IMVI 17.1 µM | NCI/ADR-RES 30.8 µM | EKVX 6.7 µM | HOP-92 17.8 µM | MCF7 3.47 µM | BT-549 29.2 µM | OVCAR-3 22 µM | OVCAR-4 29.4 µM | PC-3 34.2 µM | Hs-578T 10.3 µM | RPMI-8226 15 µM | NCI-H23 29.4 µM | MDA-MB-435 23.6 µM
